In patent US12606544B2, “JAK1 selective kinase inhibitor” (DIZAL (JIANGSU) PHARMACEUTICAL CO., LTD., priority 2019, dated 2026):

Assays:
[1] = target: T1, JAK3 (Homo sapiens, UniProt P52333); assay: Lance Ultra Kinase Assay, recombinant JAK3; type: biochemical; details: 5 mM ATP
T1 construct: purchased Carna Biosciences
T1 sequence (P52333 1-1124): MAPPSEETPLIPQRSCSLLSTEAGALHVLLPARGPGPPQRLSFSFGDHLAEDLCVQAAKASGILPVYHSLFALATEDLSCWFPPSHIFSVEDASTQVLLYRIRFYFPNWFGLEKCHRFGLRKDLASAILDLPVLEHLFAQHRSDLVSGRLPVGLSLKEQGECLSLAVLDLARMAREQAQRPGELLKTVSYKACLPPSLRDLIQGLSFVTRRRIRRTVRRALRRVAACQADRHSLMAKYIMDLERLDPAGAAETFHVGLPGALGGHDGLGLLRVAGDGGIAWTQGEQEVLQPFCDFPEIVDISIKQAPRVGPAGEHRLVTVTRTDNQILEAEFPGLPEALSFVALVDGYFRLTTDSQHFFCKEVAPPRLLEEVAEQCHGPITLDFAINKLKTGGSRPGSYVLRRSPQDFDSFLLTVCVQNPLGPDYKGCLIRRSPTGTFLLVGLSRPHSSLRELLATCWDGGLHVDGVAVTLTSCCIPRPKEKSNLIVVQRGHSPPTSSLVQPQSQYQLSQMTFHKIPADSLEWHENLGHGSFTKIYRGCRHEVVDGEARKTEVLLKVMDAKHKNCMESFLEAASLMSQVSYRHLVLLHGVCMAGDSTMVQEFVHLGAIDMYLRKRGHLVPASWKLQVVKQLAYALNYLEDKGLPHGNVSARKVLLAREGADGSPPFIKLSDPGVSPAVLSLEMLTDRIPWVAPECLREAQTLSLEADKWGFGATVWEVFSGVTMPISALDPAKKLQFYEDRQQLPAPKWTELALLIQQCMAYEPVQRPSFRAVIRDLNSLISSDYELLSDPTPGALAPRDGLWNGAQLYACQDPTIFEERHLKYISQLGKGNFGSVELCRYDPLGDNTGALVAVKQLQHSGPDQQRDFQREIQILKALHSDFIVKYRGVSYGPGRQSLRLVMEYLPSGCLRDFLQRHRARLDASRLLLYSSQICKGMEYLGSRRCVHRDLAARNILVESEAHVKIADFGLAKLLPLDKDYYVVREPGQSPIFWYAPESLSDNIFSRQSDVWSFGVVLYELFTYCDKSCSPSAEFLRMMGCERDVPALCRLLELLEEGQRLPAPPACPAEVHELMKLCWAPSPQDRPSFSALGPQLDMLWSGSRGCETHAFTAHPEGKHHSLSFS
In short: (§1)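 Each recombinant kinase preincubated with or without compound 15 min at room temperature, then reaction started with 5 mM ATP and substrate peptide for 60 min. Stopped with EDTA-containing detection mix; TR-FRET read at ex 320 nm, 665/615 nm emission ratio taken as kinase activity.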

[2] = test system: phosphorylation of STAT6; assay: Cellular p-STAT6 assay, IL-13 stimulated THP-1 cells, flow cytometry; type: cell-based; details: Homo sapiens, THP-1, THP-1 cells, IL-13 10 ng/ml; read-out: pSTAT6 IC50
In short: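 THP-1 cells (2×10^5/well, RPMI1640 + 10% FBS) preincubated 60 min at room temperature with compound (1 μM to 0.3 nM), then stimulated 30 min with IL-13 at 10 ng/ml. Fixed, methanol-permeabilized cells stained with PE anti-pSTAT6 and read by flow cytometry; IC50 from dose-response curves.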

[3] = target: T2, TYK2 (Homo sapiens, UniProt P29597); assay: Lance Ultra Kinase Assay, recombinant TYK2; type: biochemical; details: 5 mM ATP
T2 construct: purchased Carna Biosciences
In short: as §1

[4] = target: T3, JAK1 (Homo sapiens, UniProt P23458); assay: Lance Ultra Kinase Assay, recombinant JAK1; type: biochemical; details: 5 mM ATP
T3 construct: purchased Carna Biosciences
In short: as §1

[5] = Metabolic stability in human liver microsome; type: in vitro ADME; details: human, pooled human liver microsomes, pH 7.4, 1 μM compound, 1 mg/mL microsomes, NADPH
Experimental: (§2) Rat hepatocytes in male gender and human liver microsome were obtained from commercial vendors (e.g., BioreclamationIVT) and stored at −150° C. prior to use.
For metabolic stability assay with human liver microsome, 1 μM of each test compound was incubated with 1 mg/mL of microsomes (Pooled HLM with 20 mg/ml protein cone) at 37° C. in 250 μL of buffer (100 mM phosphate buffer, pH-7.4) containing 1 mM NADPH solution. […] was quenched with 5 volumes chilled acetonitrile at different time points 0, 0.5, 5, 10, 15, 20 and 30 min in a fresh 96 well plate. The quench plate was centrifuged at 4000 rpm for 15 min. 40 μL of supernatant was diluted to 200 μL with pure water and analyzed using LC-MS/MS. […]

[6] = Pharmacokinetics in plasma and lung in mouse, intratracheal instillation; type: in vivo; details: male CD1 mice; for half-life / Kp at 5 min / Kp at 1 h: mouse; for half-life: lung, intratracheal instillation, read-out: Lung T1/2 (converted); for Kp at 5 min / Kp at 1 h: lung/plasma, other: intratracheal instillation; for Kp at 5 min: read-out: Conc. Ratio (Lung/Plasma) 5 min; for Kp at 1 h: read-out: Conc. Ratio (Lung/Plasma) 1 hr
Experimental: Lung PK of the compounds were tested via Intratracheal (IT) instillation administration in male CD1 Mice. Plasma and lung levels of test compounds and ratios thereof were determined in the following manner. Test compounds were dosed cassettely as the formulation of 0.4 mg/mL suspension of 0.5% HPMC, 0.1% Tween 80 in saline. The animal was anesthetized using 5% of isoflurane for 5 min, open its mouth and take out the tongue, the light was focused on the neck of the mouse and localize the trachea, and the syringe was inserted into the trachea while the trachea is in the open state, and the test compounds were inject into the trachea. At various time points (typically 5 min, 1, 4, 24 hours) post dosing, approximately 0.250 mL blood samples were removed via cardiac puncture and intact lungs were excised from the mice. Each blood sample was transferred into plastic micro centrifuge tubes containing K2EDTA. Blood samples were then centrifuged (Eppendorf centrifuge, 5804R) for 4 minutes at approximately 12,000 rpm at 4° C. to collect plasma. The mice will be fully exsanguinated prior to tissue collection. Lung samples will be collected at adopted time point and the whole lung were weighted and homogenized. Concentrations of test compounds in the plasma and lung samples were analyzed using a LC-MS/MS method. WinNonlin (Phoenix™) or other similar software will be used for pharmacokinetic calculations.

[7] = Metabolic stability in rat hepatocytes; type: in vitro ADME; details: 1 μM compound, male rat hepatocytes
Experimental: as §2
For metabolic stability assay with rat heptatocytes, vials of cryopreserved hepatocytes or microsome were removed from storage, ensured that vials remain at cryogenic temperatures. 1 μM of each test compound (in Acetonitrile; 0.01% DMSO) was incubated with 250 μL of hepatocyte cells (1×10^6 cells/ml) in a 96 deep well plate. […] 40 μL of supernatant was diluted to 200 μL with pure water and analyzed using LC-MS/MS.
In vitro hepatocyte clearance was estimated based on determination of elimination half-life (T1/2) of compounds disappearance from their initial concentrations. Peak area ratios of each compound (test or control) to IS was calculated. Ln (% Control) versus Incubation Time (min) curve was plotted, and the slope of a linear fitting line was calculated. Drug elimination rate constant k (min−1), T1/2 (min), and in vitro intrinsic clearance CLint (μL/min/E6) was calculated according to the following equations: k=−slope T1/2=0.693/k CLint=k/Chep Where Chep (cells×μL^−1) is the cell concentration in the incubation system.

[8] = target: T4, JAK2 (Homo sapiens, UniProt O60674); assay: Lance Ultra Kinase Assay, recombinant JAK2; type: biochemical; details: 5 mM ATP
T4 construct: purchased Carna Biosciences
In short: as §1

T3 sequence (P23458 whole entry): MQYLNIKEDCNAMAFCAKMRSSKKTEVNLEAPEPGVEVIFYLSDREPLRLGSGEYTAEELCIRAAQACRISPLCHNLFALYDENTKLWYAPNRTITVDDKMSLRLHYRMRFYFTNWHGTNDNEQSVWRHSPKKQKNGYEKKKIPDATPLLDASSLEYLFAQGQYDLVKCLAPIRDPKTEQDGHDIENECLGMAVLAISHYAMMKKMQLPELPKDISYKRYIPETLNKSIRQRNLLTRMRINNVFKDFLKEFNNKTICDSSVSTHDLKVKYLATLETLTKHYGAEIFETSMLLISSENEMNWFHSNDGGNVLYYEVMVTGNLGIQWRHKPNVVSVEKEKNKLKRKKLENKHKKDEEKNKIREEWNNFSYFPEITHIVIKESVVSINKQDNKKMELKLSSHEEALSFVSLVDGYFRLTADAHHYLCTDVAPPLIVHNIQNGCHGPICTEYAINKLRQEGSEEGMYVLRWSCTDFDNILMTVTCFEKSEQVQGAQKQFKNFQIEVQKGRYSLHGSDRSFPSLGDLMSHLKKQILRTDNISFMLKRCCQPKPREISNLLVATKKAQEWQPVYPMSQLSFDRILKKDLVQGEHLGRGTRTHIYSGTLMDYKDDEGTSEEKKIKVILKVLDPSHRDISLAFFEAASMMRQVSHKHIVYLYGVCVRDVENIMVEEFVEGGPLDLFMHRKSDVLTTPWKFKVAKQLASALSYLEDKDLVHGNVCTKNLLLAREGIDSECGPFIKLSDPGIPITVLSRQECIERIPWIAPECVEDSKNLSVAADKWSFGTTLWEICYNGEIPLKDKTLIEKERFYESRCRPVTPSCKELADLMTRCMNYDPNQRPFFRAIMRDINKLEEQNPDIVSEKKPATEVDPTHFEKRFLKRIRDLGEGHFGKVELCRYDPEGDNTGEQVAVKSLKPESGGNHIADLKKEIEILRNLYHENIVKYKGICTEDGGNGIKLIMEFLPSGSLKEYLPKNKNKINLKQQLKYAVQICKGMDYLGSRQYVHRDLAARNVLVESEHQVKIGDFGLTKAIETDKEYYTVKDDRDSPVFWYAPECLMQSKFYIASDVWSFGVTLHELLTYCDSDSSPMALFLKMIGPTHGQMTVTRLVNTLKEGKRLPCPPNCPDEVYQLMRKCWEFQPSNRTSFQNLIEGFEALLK
T2 sequence (P29597 whole entry): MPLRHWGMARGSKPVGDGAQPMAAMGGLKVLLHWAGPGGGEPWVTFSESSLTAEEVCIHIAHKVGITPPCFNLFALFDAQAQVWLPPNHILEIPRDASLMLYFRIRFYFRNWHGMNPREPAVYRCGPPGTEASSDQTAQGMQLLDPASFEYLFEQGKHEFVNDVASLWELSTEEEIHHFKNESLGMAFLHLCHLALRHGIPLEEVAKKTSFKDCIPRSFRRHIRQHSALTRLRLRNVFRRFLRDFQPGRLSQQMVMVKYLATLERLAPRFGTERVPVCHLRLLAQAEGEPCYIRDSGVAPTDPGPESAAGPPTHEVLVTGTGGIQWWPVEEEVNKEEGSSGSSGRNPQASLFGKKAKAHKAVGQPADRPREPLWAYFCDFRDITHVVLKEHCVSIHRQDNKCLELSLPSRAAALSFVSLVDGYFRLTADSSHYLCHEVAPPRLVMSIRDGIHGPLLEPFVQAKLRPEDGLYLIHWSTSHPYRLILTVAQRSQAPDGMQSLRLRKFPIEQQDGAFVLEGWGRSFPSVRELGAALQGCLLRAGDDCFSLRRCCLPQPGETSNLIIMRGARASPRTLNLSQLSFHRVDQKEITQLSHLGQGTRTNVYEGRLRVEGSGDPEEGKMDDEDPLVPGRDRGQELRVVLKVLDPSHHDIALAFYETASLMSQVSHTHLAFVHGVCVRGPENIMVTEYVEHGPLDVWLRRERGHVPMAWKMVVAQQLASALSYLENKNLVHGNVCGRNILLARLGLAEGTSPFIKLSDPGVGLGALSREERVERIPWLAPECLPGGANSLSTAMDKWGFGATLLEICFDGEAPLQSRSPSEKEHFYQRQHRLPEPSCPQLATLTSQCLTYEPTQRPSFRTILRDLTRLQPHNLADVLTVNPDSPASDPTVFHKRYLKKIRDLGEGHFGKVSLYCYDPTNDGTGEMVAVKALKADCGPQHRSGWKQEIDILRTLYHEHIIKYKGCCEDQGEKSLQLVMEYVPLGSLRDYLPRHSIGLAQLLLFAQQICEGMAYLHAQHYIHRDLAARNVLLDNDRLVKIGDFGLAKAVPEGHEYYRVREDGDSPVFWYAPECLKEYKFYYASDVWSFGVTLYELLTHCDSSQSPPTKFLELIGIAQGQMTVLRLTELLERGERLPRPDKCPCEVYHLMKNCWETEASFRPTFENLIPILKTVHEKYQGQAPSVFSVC
T4 sequence (O60674 whole entry): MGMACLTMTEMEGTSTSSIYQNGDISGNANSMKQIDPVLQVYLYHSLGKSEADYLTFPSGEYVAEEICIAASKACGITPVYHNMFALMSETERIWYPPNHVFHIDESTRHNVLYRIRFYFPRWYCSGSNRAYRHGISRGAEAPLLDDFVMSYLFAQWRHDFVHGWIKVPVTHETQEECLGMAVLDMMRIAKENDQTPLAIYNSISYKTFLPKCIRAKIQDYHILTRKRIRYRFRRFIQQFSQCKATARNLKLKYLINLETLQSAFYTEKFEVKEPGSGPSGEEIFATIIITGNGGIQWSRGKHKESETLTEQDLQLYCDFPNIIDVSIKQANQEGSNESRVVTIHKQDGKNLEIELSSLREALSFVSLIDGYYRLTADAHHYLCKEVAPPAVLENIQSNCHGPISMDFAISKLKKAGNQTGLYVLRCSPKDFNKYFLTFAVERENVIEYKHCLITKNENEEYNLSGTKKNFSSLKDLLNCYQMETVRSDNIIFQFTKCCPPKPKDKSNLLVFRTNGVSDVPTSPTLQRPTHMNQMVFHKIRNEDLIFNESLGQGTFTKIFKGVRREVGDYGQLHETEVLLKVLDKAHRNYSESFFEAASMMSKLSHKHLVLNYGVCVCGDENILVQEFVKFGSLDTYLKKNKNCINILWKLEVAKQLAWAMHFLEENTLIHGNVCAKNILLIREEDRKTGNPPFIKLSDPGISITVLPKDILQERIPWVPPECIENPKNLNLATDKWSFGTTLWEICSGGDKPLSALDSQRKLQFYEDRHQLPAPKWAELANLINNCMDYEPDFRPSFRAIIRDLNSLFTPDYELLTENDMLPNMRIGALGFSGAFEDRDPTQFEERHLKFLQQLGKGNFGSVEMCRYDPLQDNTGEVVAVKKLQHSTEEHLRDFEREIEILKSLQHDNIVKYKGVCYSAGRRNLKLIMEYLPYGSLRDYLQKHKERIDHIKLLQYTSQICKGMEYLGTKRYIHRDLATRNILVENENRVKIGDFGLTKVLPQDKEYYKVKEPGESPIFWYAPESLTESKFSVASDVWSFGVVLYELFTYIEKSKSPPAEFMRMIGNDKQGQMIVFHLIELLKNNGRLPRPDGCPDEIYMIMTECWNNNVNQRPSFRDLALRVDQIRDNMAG

SMILES	IC50 [1]	IC50 [2]	IC50 [3]	IC50 [4]	microsomal CLint at 1 μM [5]	% Dose in Lung 5 min [6]	% Dose in Lung 1 hr [6]	half-life [6]	Kp at 5 min [6]	Kp at 1 h [6]	Rat Hepatocyte CLint [7]	IC50 [8]
COC[C@H](C(=O)Nc1cccc2c(-c3nc(Nc4ccnc(CO)c4)ncc3F)c[nH]c12)N1CCN(C)CC1 [Example 2, (R)-N-(3-(5-fluoro-2-((2-(hydroxymethyl)pyridin-4-yl)amino)pyrimidin-4-yl)-1H-indol-7-yl)-3-methoxy-2-(4-methylpiperazin-1-yl)propanamide]	> 10000 nM	4.3 nM	1090 nM	0.25 nM	10.6 µL/min/mg	18.1%	13.4%	29.9 h	399	3260	9.5 μL/min/10^6 cells	202 nM
COC[C@H](C(=O)Nc1cccc2c(-c3nc(Nc4ccc5sc(CO)nc5c4)ncc3F)c[nH]c12)N1CCN(C)CC1 [Example 38, (R)-N-(3-(5-fluoro-2-((2-(hydroxymethyl)benzo[d]thiazol-5-yl)amino)pyrimidin-4-yl)-1H-indol-7-yl)-3-methoxy-2-(4-methylpiperazin-1-yl)propanainide]	> 10000 nM	11.8 nM	726 nM	0.13 nM	10.9 µL/min/mg	79.9%	19.4%	3.9 h	965	1780	117.1 μL/min/10^6 cells	65 nM
COC[C@H](C(=O)Nc1cccc2c(-c3nc(Nc4ccc(-c5cnco5)nc4)ncc3F)c[nH]c12)N1CCN(C)CC1 [Example 40, (R)-N-(3-(5-fluoro-2-((6-(oxazol-5-yl)pyridin-3-yl)amino)pyrimidin-4-yl)-1H-indol-7-yl)-3-methoxy-2-(4-methylpiperazin-1-yl)propanamide]	> 10000 nM	12.1 nM	2510 nM	0.21 nM	50.4 µL/min/mg	58.6%	23.0%	4.6 h	824	1440	36.4 μL/min/10^6 cells	219 nM
COC[C@H](C(=O)Nc1cccc2c(-c3nc(Nc4ccc(NC(=O)CO)nc4)ncc3F)c[nH]c12)N1CCN(C)CC1 [Example 8, (R)-N-(3-(5-fluoro-2-((6-(2-hydroxyacetamido)pyridin-3-yl)amino)pyrimidin-4-yl)-1H-indol-7-yl)-3-methoxy-2-(4-methylpiperazin-1-yl)propanamide]	> 10000 nM	6.2 nM	850 nM	0.16 nM	7.2 µL/min/mg	62.7%	13.4%	3.5 h	296	1590	38.4 μL/min/10^6 cells	183 nM
CCC(=O)Nc1ccc(Nc2ncc(F)c(-c3c[nH]c4c(NC(=O)[C@@H](COC)N5CCN(C)CC5)cccc34)n2)cn1 [Example 5, (R)-N-(3-(5-fluoro-2-((6-propionamidopyridin-3-yl)amino)pyrimidin-4-yl)-1H-indol-7-yl)-3-methoxy-2-(4-methylpiperazin-1-yl)propanamide]	> 10000 nM	5.1 nM	764 nM	0.19 nM	73.9 µL/min/mg	101.6%	54.0%	6.1 h	2100	2940	11.0 μL/min/10^6 cells	268 nM
